Measurements from patent US8952024B2, “Herbicidal pyrimidone derivatives” (E I du Pont de Nemours and Company, priority 2009, dated 2015).

Experiments:
Type in all cases: in vivo
[1] = tested on: rice (Oryza sativa); assay: Test B flooded paddy test; conditions: for Plant response rating, Flood, Rice: 250 g ai/ha, flooded paddy test, visual rating on 0 to 100 scale (0 no effect, 100 complete control) after 13 to 15 days; for Plant response rating, Rice: Flood (flooded paddy test), 13 to 15 days; for Rice plant response rating: Flood, 31 g ai/ha, scale 0 to 100 (0 no effect, 100 complete control)
Summary of the method: (§1)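 Each compound is added to standing floodwater (3 cm above soil, maintained) in pots of 2-leaf-stage plants; greenhouse exposure lasts 13–15 d before visual comparison with controls on a 0–100 control scale.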

[2] = tested on: ducksalad (Heteranthera limosa); assay: Test B flooded paddy test; conditions: for Plant response rating, Flood, Ducksalad: 250 g ai/ha, flooded paddy test, visual rating on 0 to 100 scale (0 no effect, 100 complete control) after 13 to 15 days; for Plant response rating, Ducksalad: Flood (flooded paddy test), 13 to 15 days; for Ducksalad plant response rating: Flood, 31 g ai/ha, scale 0 to 100 (0 no effect, 100 complete control)
Summary of the method: as §1

[3] = tested on: barnyardgrass (Echinochloa crus-galli); assay: Test B flooded paddy test; conditions: for Plant response rating, Flood, Barnyardgrass: 250 g ai/ha, flooded paddy test, visual rating on 0 to 100 scale (0 no effect, 100 complete control) after 13 to 15 days; for Plant response rating, Barnyardgrass: Flood (flooded paddy test), 13 to 15 days; for Barnyardgrass plant response rating: Flood, 31 g ai/ha, scale 0 to 100 (0 no effect, 100 complete control)
Summary of the method: as §1

[4] = tested on: umbrella sedge (Cyperus difformis); assay: Test B flooded paddy test; conditions: for Plant response rating, Flood, Sedge, Umbrella: 250 g ai/ha, flooded paddy test, visual rating on 0 to 100 scale (0 no effect, 100 complete control) after 13 to 15 days; for Plant response rating, Sedge, Umbrella: Flood (flooded paddy test), 13 to 15 days; for Sedge, Umbrella plant response rating: Flood, 31 g ai/ha, scale 0 to 100 (0 no effect, 100 complete control)
Summary of the method: as §1

[5] = tested on: woolly cupgrass (Eriochloa villosa); assay: Test B pre-/postemergence plant response; conditions: for Cupgrass, Woolly plant response rating (0 to 100 scale): 62 g ai/ha, 0 is no effect, 13 to 15 days
Summary of the method: (§2)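 Visual ratings on a 0–100 scale (100 = complete control) were made versus untreated controls 13–15 days after treatment in a greenhouse. Compounds in surfactant-containing non-phytotoxic solvent were applied preemergence to seeds in loam–sand blend or postemergence to 1- to 4-leaf plants (2–18 cm).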

[6] = tested on: yellow nutsedge (Cyperus esculentus); assay: Test B pre-/postemergence plant response; conditions: for Nutsedge, Yellow plant response rating (0 to 100 scale): 62 g ai/ha, 0 is no effect, 13 to 15 days
Summary of the method: as §2

[7] = tested on: pigweed (Amaranthus retroflexus); assay: Test B pre-/postemergence plant response; conditions: for Pigweed plant response rating (0 to 100 scale): 62 g ai/ha, 0 is no effect, 13 to 15 days
Summary of the method: as §2

[8] = tested on: lambsquarters (Chenopodium album); assay: Test B pre-/postemergence plant response; conditions: for Lambsquarters plant response rating (0 to 100 scale): 62 g ai/ha, 0 is no effect, 13 to 15 days
Summary of the method: as §2

[9] = tested on: bermudagrass (Cynodon dactylon); assay: Test B pre-/postemergence plant response; conditions: for Bermudagrass plant response rating (0 to 100 scale): 62 g ai/ha, 0 is no effect, 13 to 15 days
Summary of the method: as §2

[10] = tested on: Surinam grass (Brachiaria decumbens); assay: Test B pre-/postemergence plant response; conditions: for Surinam Grass plant response rating (0 to 100 scale): 62 g ai/ha, 0 is no effect, 13 to 15 days
Summary of the method: as §2

[11] = tested on: wheat (Triticum aestivum); assay: Test B pre-/postemergence plant response; conditions: for Wheat plant response rating (0 to 100 scale): 62 g ai/ha, 0 is no effect, 13 to 15 days
Summary of the method: as §2

[12] = tested on: downy bromegrass (Bromus tectorum); assay: Test B pre-/postemergence plant response; conditions: for Bromegrass, Downy plant response rating (0 to 100 scale): 62 g ai/ha, 0 is no effect, 13 to 15 days
Summary of the method: as §2

[13] = 62 g ai/ha, scale of 0 to 100 where 0 is no effect and 100 is complete control
[14] = 125 g ai/ha, scale 0 to 100, 0 is no effect, 100 is complete control
[15] = 31 g ai/ha, postemergence, scale 0 to 100, 0 is no effect, 100 is complete control
[16] = postemergence, 100 is complete control
[17] = Postemergence, 125 g ai/ha, visual rating after 13 to 15 days, scale 0 (no effect) to 100 (complete control)
[18] = Postemergence, 250 g ai/ha, scale 0 to 100 (0 no effect, 100 complete control)

Structure (SMILES): O=C1CCCC(OC(=O)C2CC2)=C1C(=O)c1cnc(-c2ccccc2)n(-c2ccccc2)c1=O [Compound 88]
- Plant response rating, Flood, Rice [1]: 50
- Plant response rating, Rice [1, 13]: 0
- Plant response rating, Rice [1, 14]: 40
- Rice plant response rating [1]: 0
- Plant response rating, Flood, Ducksalad [2]: 80
- Plant response rating, Ducksalad [2, 13]: 40
- Plant response rating, Ducksalad [2, 14]: 75
- Ducksalad plant response rating [2]: 30
- Plant response rating, Flood, Barnyardgrass [3]: 60
- Plant response rating, Barnyardgrass [3, 13]: 20
- Plant response rating, Barnyardgrass [3, 14]: 40
- Barnyardgrass plant response rating [3]: 0
- Plant response rating, Flood, Sedge, Umbrella [4]: 65
- Plant response rating, Sedge, Umbrella [4, 13]: 30
- Plant response rating, Sedge, Umbrella [4, 14]: 40
- Sedge, Umbrella plant response rating [4]: 0
- Plant response rating, Cupgrass, Woolly [5, 15]: 75
- Cupgrass, Woolly plant response rating (0 to 100 scale) [5, 16]: 80
- Plant response rating, Cupgrass, Woolly [5, 17]: 90
- Plant response rating, Cupgrass, Woolly [5, 18]: 95
- Plant response rating, Nutsedge, Yellow [6, 15]: 25
- Nutsedge, Yellow plant response rating (0 to 100 scale) [6, 16]: 65
- Plant response rating, Nutsedge, Yellow [6, 18]: 75
- Plant response rating, Pigweed [7, 15]: 98
- Pigweed plant response rating (0 to 100 scale) [7, 16]: 100
- Plant response rating, Pigweed [7, 18]: 100
- Plant response rating, Lambsquarters [8, 15]: 95
- Lambsquarters plant response rating (0 to 100 scale) [8, 16]: 98
- Plant response rating, Lambsquarters [8, 18]: 100
- Plant response rating, Bermudagrass [9, 15]: 80
- Bermudagrass plant response rating (0 to 100 scale) [9, 16]: 80
- Plant response rating, Bermudagrass [9, 17]: 80
- Plant response rating, Bermudagrass [9, 18]: 85
- Plant response rating, Surinam Grass [10, 15]: 95
- Surinam Grass plant response rating (0 to 100 scale) [10, 16]: 95
- Plant response rating, Surinam Grass [10, 18]: 98
- Plant response rating, Wheat [11, 15]: 0
- Wheat plant response rating (0 to 100 scale) [11, 16]: 5
- Plant response rating, Wheat [11, 18]: 5
- Plant response rating, Bromegrass, Downy [12, 15]: 40
- Bromegrass, Downy plant response rating (0 to 100 scale) [12, 16]: 45
- Plant response rating, Bromegrass, Downy [12, 17]: 45
- Plant response rating, Bromegrass, Downy [12, 18]: 60

Structure (SMILES): CCCCCn1c(-c2ccccc2)ncc(C(=O)C2=C(O)CCCC2=O)c1=O [Compound 89]
- Plant response rating, Flood, Rice [1]: 15
- Plant response rating, Rice [1, 13]: 0
- Plant response rating, Rice [1, 14]: 0
- Rice plant response rating [1]: 0
- Plant response rating, Flood, Ducksalad [2]: 100
- Plant response rating, Ducksalad [2, 13]: 90
- Plant response rating, Ducksalad [2, 14]: 100
- Ducksalad plant response rating [2]: 45
- Plant response rating, Flood, Barnyardgrass [3]: 40
- Plant response rating, Barnyardgrass [3, 13]: 20
- Plant response rating, Barnyardgrass [3, 14]: 30
- Barnyardgrass plant response rating [3]: 20
- Plant response rating, Flood, Sedge, Umbrella [4]: 85
- Plant response rating, Sedge, Umbrella [4, 13]: 85
- Plant response rating, Sedge, Umbrella [4, 14]: 85
- Sedge, Umbrella plant response rating [4]: 30
- Plant response rating, Cupgrass, Woolly [5, 15]: 35
- Cupgrass, Woolly plant response rating (0 to 100 scale) [5, 16]: 50
- Plant response rating, Cupgrass, Woolly [5, 17]: 65
- Plant response rating, Cupgrass, Woolly [5, 18]: 75
- Plant response rating, Nutsedge, Yellow [6, 15]: 35
- Nutsedge, Yellow plant response rating (0 to 100 scale) [6, 16]: 55
- Plant response rating, Nutsedge, Yellow [6, 18]: 75
- Plant response rating, Pigweed [7, 15]: 80
- Pigweed plant response rating (0 to 100 scale) [7, 16]: 98
- Plant response rating, Pigweed [7, 18]: 100
- Plant response rating, Lambsquarters [8, 15]: 95
- Lambsquarters plant response rating (0 to 100 scale) [8, 16]: 98
- Plant response rating, Lambsquarters [8, 18]: 100
- Plant response rating, Bermudagrass [9, 15]: 75
- Bermudagrass plant response rating (0 to 100 scale) [9, 16]: 85
- Plant response rating, Bermudagrass [9, 17]: 95
- Plant response rating, Bermudagrass [9, 18]: 95
- Plant response rating, Surinam Grass [10, 15]: 55
- Surinam Grass plant response rating (0 to 100 scale) [10, 16]: 75
- Plant response rating, Surinam Grass [10, 18]: 95
- Plant response rating, Wheat [11, 15]: 0
- Wheat plant response rating (0 to 100 scale) [11, 16]: 5
- Plant response rating, Wheat [11, 18]: 10
- Plant response rating, Bromegrass, Downy [12, 15]: 0
- Bromegrass, Downy plant response rating (0 to 100 scale) [12, 16]: 0
- Plant response rating, Bromegrass, Downy [12, 17]: 5
- Plant response rating, Bromegrass, Downy [12, 18]: 5
